Values of other authors as cited in US20200308123A1, “Novel formulation of metaxalone” (ICEUTICA PTY LTD., priority 2009, published 2020).
Like-named read-outs stand apart in the source and are kept apart here.

How the values were obtained:
[1] = tested on: Hepatic Cytochrome P450 enzymes
[2] = tested on: major CYP enzymes such as CYP1A2, CYP2B6, and CYP3A4; conditions: in vitro
[3] = tested on: major CYP enzymes such as CYP1A2, CYP2A6, CYP2B6, CYP2C8, CYP2C9, CYP2C19, CYP2D6, CYP2E1, and CYP3A4

- induction of major CYP enzymes [2]: does not significantly induce
- inhibition of major CYP enzymes [3]: does not significantly inhibit
- lipophilicity (log P): 2.42
- solubility (in 96% ethanol): soluble
- solubility (in chloroform): freely soluble
- solubility (in ether): practically insoluble
- solubility (in methanol): soluble
- solubility (in water): practically insoluble
Structure (SMILES): Cc1cc(C)cc(OCC2CNC(=O)O2)c1 (stereo not drawn) [Metaxalone]
- CYP enzymes that appear to metabolize metaxalone [1]: CYP1A2, CYP2D6, CYP2E1, and CYP3A4 and, to a lesser extent, CYP2C8, CYP2C9, and CYP2FC19
